Residues, ends and D or L forms follow the SMILES beside them. *: point of attachment. Bz = O=C(c1ccccc1)*
Row | Structure (SMILES) | melting point [°C]
1 | CCNC(=O)[C@@H]1CCCN1C(=O)[C@H](C)NC(=O)c1ccccc1 (Bz-Ala-Pro-NHEt) | 200 to 202
2 | CC(=O)Nc1ccc(C(=S)N2CCCCC2)cc1 | 202 to 203
3 | Cc1noc(NS(=O)(=O)c2cc(S(=O)(=O)c3ccccc3)cs2)c1Br | 181 to 184
4 | CCOC1=NS(=O)(=O)c2cc(I)ccc21 | 185 to 190
5 | CCOC(=O)c1[nH]c2cc(C(F)(F)F)ccc2c1NCC(=O)c1ccccc1 | 237 to 239
6 | CC(=O)OC1CSC(Oc2ccc(-c3cccnc3C)nc2)C(OC(C)=O)C1OC(C)=O (stereo not drawn) | 198 to 200
7 | CC(=O)n1[nH]c(=O)n(-c2ccc(Cl)cc2)c1=O | 201 to 203
8 | O=C(O)CC1(CNC(=O)OC(OC(=O)c2ccccc2)c2ccccc2)CCCCC1 (stereo not drawn) | 75.5 to 76
9 | CC(=O)C1CCC2C3CCC4CC(O)CCC4(C)C3=CCC12C (stereo not drawn) | 160 to 161
10 | O=C(NCC12CC3CC(CC(C3)C1)C2)c1cc(CCCNCCCO)cnc1Cl | 105 to 107
11 | CN(C)C(=O)C(CCN1CCC(Nc2nc3cncnc3n2Cc2ccccn2)CC1)(c1ccccc1)c1ccccc1 | 192
12 | O=c1c(-c2ccccc2)coc2cc(OCC3CO3)ccc12 (stereo not drawn) | 151 to 152
13 | O=C(NCCO)/C(=C/c1ccc(OC(F)F)cc1)NC(=O)c1ccc(OCCc2ccccc2)cc1 | 155 to 157
14 | Cc1ccccc1-c1nc2ccccc2[nH]1 | 215
15 | CCN1C(=O)C(C)(C)C(=O)N(C)c2cc(CN(CCn3ccc4oc(C)cc4c3=O)Cc3cncn3C)ccc21 | 106 to 108
16 | C[C@H](Nc1nc(Cl)nc(Cl)n1)c1ccccc1 | 146 to 147
17 | COc1cc(CN(C)Cc2ccccc2)ccc1NC(=O)Nc1cnc(C)cn1 | 142 to 143
18 | CCCCNCc1cccc(OCCCNc2nc(N)nn2C)c1 | 99.5 to 101
19 | COc1cc(Cc2cnc(N)nc2N)cc(OC)c1N(C)N=O | 249 to 250
20 | CCC1(c2ccccc2)OC(c2ccc(-c3ccc(Cl)cc3)cc2)OC1=O (stereo not drawn) | 80 to 83
21 | CN(C)CCNC(=O)c1cc(Oc2ccc3c(C(=O)Nc4cccc(C(F)(F)F)c4)cccc3c2)ccn1 | 80 to 82
22 | N#Cc1[nH]c2ccc(Cl)cc2c1-c1c(F)cccc1F | 199 to 200
23 | CC(C)c1nc(O)cc(=O)n1C | 159
24 | O=C(O)COCCC1CCCN(c2cnc(-c3ccccc3)c(-c3ccccc3)n2)C1 (stereo not drawn) | 139 to 140
25 | CCOC(=O)c1ccc(NS(C)(=O)=O)c(N)c1 | 151

Row | Structure (SMILES) | melting point [°C]
26 | Cc1nc(-n2cnn(Cc3ccc(C(F)(F)F)o3)c2=O)sc1C(=O)NCc1cccnc1 | 124 to 125
27 | CC(C)CSc1cc(C(=O)O)cc(S(N)(=O)=O)c1Oc1ccccc1 | 193 to 194
28 | O=C(Nc1nc2ccccc2nc1Oc1ccccc1)N1CCN(C(c2ccccc2)c2ccccc2)CC1 | 208 to 210
29 | CC(NNC=NN)C(=O)O (stereo not drawn) | 239 to 241
30 | CN1CCN(c2cccc3ccc(NC(=O)Nc4ccccc4)cc23)CC1 | 213 to 214
31 | Cn1c(C(F)(F)F)cc(=O)n(-c2c(F)cc(Cl)c3cc(CO)oc23)c1=O | 198 to 199
32 | CCNC(=O)Oc1cnn(C(C)(C)C)c1 | 77
33 | NC(=O)Cc1ccc(N/C=C2\C(=O)Nc3ccccc32)cc1 | > 250
34 | Cc1cccc2ncc(C(=O)NC3CC3)c(=O)n12 | 174 to 176
35 | CN1C2CCC1C1CN(C(=O)N3c4ccccc4C(=O)Nc4cccnc43)CC12 (stereo not drawn) | 218 to 220
36 | Cc1nn(CC(O)c2ccc(OC(F)(F)F)cc2)c(=O)n1-c1ccc(N2CCN(c3ccc(O)cc3)CC2)cc1 (stereo not drawn) | 231
37 | COc1ccc(Oc2c(Br)cc(C=O)cc2[N+](=O)[O-])cc1Cc1ccc(=O)[nH]n1 | 188 to 190
38 | O=C(Cc1ccc(C(F)(F)F)cn1)c1ccc(Cl)cc1 | 114 to 116
39 | COC(=O)c1ccc(Cc2cn(C)c3ccc(C=C(C)C(=O)O)cc23)c(OC)c1 | 182 to 183
40 | O=C(O)c1cc(=O)c2c(O)cccc2[nH]1 | 298 to 301
41 | O=C(CCc1cccnc1)NCCCC1CCN(C(c2ccccc2)c2ccccc2)CC1 | 109 to 110
42 | COc1ccc(-c2coc3ccc(-c4nnc(SCc5ccc(OC)c(F)c5)o4)cc23)cc1 | 162 to 163
43 | CCn1cc(-c2cccc(C(F)(F)F)c2)c(=O)n1-c1cccc(C(F)(F)F)c1 | 110 to 111
44 | ClCc1ccc(-c2nnc3n2-c2cccnc2Nc2ccccc2-3)cc1 | 260 to 262
45 | CCNC=C(C(=O)C=Cc1ccc(N(C)C)c(C)c1)C(=O)OC | 98 to 100
46 | CN1Cc2c(Cl)ccc3scc(c23)S1(=O)=O | 196
47 | N=C(NCc1cccnc1)N[N+](=O)[O-] | 185 to 190
48 | O=C(Nc1ccc2nc(CN3CCN=C3c3ccccc3)ccc2c1)c1ccc(-c2ccc(F)cc2)cc1 | 209 to 210
49 | C#CCC(NC(=O)c1ccccc1)C(C)=O (stereo not drawn) | 101 to 103
50 | NC(=O)c1csc2ccc([N+](=O)[O-])cc12 | 243 to 250

Row | Structure (SMILES) | melting point [°C]
51 | Cn1cc(-c2cccc(C#N)c2)c(=O)c(-c2cccc(C#N)c2)c1 | 322 to 327
52 | COCCOCn1c(Cl)c(C=O)c2ccccc21 | 52.5 to 54
53 | Cn1cnc2nc(-c3ccc(Br)cc3)nn2c1=S | > 300
54 | Cc1ccc(S(=O)(=O)OCCC2Cc3ccccc3O2)cc1 (stereo not drawn) | 51 to 54
55 | C=CC(=O)OCCS(=O)(=O)c1ccc(O)cc1 | 91 to 92
56 | Cc1nc2cc(NC(=O)c3cc4cccnc4n3Cc3ccncc3)ccc2n1C | 236 to 246
57 | CCCCCCCCCCCCCCCCC[C@@H](C[C@@H]1OC(=O)[C@H]1CCCCCC)OC(=O)[C@H](CC(C)C)NC=O | 64 to 65
58 | NC(=O)c1csc(Cl)c1 | 138 to 139
59 | COc1cccc(Cc2cnc(N[N+](=O)[O-])[nH]c2=O)c1 | 178 to 179
60 | COc1ccc(-c2c(Cl)c(CN3CCCC3=O)nc3sc4cnccc4c23)cc1OC | 228 to 230
61 | O=C(O)/C=C/c1ccc(-c2nc3c(=O)n(CCC4CCCCC4)c(=O)n(CCC4CCCCC4)c3[nH]2)cc1 | > 250
62 | CC(C)(O)c1ccoc1C(=O)c1[nH]c2cc(Cl)ccc2c1CC(=O)O | 229 to 230
63 | CC(C)CCC(O)C(CC1CCCCC1)NC(=O)C(Cc1c[nH]cn1)N(C)C(=O)C(Cc1ccccc1)NC(=O)N1CCOCC1 (stereo not drawn) | 102 to 108
64 | CCOC(=O)c1c(Cl)nc(-c2ccc(N)cc2)c(N)c1C(=O)OCC | 137
65 | N#Cc1ccc(CCC(O)c2ccc(C#N)cc2)cc1 (stereo not drawn) | 110 to 112
66 | N#Cc1ccc(C(=O)N[C@H]2CC[C@H](CCN3CCN(c4nccc5c4OCC5)CC3)CC2)cc1 | 262
67 | Cc1cc(SCc2ccc3cn(-c4ccc(C(F)(F)F)cc4)nc3c2)ccc1OCC(=O)O | 142 to 144
68 | COc1ccc(C(C)C(=O)O)cc1[N+](=O)[O-] (stereo not drawn) | 89 to 90
69 | CC(C)Oc1cc(OC(C)C)c2c(=O)cc(Sc3ccc(O)cc3)oc2c1 | 234 to 236
70 | CCc1nnc(-c2ccc(O)cc2)n1-c1ccccc1 | 275
71 | CCOC(=O)Cn1c(CC)nc2c(O)cccc21 | 148 to 150
72 | COCCS(=O)(=O)c1ccccc1S(=O)(=O)NC(=O)Nc1nc(OC)cc(OC)n1 | 187 to 192
73 | CCOC(=O)CC(C#N)(CC(=O)OCC)c1ccc(OC)cc1 | 65 to 75
74 | CCN(CC)C(=O)C(=O)Nc1cc(C)c(S(=O)(=O)C[N+](=O)[O-])c(C)c1 | 128 to 129
75 | O=C1NC(=O)N(Cc2ccccc2)C(=O)C1Cc1ccccc1 (stereo not drawn) | 107 to 109

Row | Structure (SMILES) | melting point [°C]
76 | Cc1ccc(CC2(O)CCN(C(C)C(=O)Nc3ccc(O[Si](C)(C)C(C)(C)C)cc3)CC2)cc1 (racemic) | 134 to 138
77 | Cc1cc(=O)n(Cc2ccccc2)[nH]c1=O | > 200
78 | Cc1cc(CNC(=O)c2cc(-c3ccc(C(C)(C)C)cc3)nn2CC(=O)c2ccccc2)ccc1OC(C)(C)C(=O)O | 116
79 | CCOCCOc1ccccc1COc1ccc2c(c1)C=C(C(=O)Nc1ccc(CN(C)C3CCOCC3)cc1)CCS2(=O)=O | 132 to 136
80 | CC(=O)c1c(C(C)C)nn2ccccc12 | 74
81 | OC1(c2ccc(Cl)c(Cl)c2)c2ccccc2C2=NCCN21 (stereo not drawn) | 203 to 205
82 | OC1(c2ccc(-c3ccc(F)cc3)cc2)CN2CCC1CC2 (stereo not drawn) | 172 to 173
83 | Cc1c(F)c(N)nc(-n2cc(C(=O)O)c(=O)c3cc(F)c(F)c(Cl)c32)c1F | 253 to 257
84 | CS(=O)(=O)c1cc(C(=O)O)ccc1Oc1ccc([N+](=O)[O-])cc1 | 140 to 150
85 | CCS(=O)(=O)Nc1ccc(S(=O)(=O)C=CC#N)cc1 | 177 to 180
86 | COCc1cc2c(c3c1[nH]c1ccc(O)cc13)C(=O)N(CCN(C)C)C2=O | 235 to 237
87 | CC(=O)c1ccc(-c2ccc(Br)cc2F)cc1 | 94.5 to 95.5
88 | CC(O)(c1cccc(C(F)(F)F)c1)c1cc2cccc(-c3cccc(C(=O)NCCO)c3)c2s1 (stereo not drawn) | 176 to 177
89 | CC(=CC(=O)O)c1ccc(-c2ccc(F)cc2)cc1 | 58 to 60
90 | CCc1ccc2cc(OC)cc(NC(C)CCCN)c2n1 (stereo not drawn) | 111 to 114
91 | Cc1c(-c2ccc(O)cc2O)c(=O)oc2cc(F)ccc12 | 266 to 268
92 | Cc1[nH]nc(Oc2ncc(C(F)(F)F)cc2Cl)c1C | 102 to 103
93 | O=S(=O)(NCCCCCCCCCCOc1ccc(-n2ccnc2)cc1)c1ccc2ccccc2c1 | 112 to 115
94 | COc1ccc(CCN2CCC(C(O)(c3cc4ccccc4s3)c3cc4ccccc4s3)CC2)cc1 | 168 to 179
95 | Cc1nc(NC(=O)c2cnn3c(C(F)(F)F)cc(-c4ccc(C(F)(F)F)c(Cl)c4)nc23)sc1S(N)(=O)=O | 299
96 | CCCc1ncc(CO)c(NCc2ccc(-c3ccccc3-c3nnnn3C(c3ccccc3)(c3ccccc3)c3ccccc3)cc2)n1 | 134 to 137
97 | CCOC(=O)Oc1ccc2nc(S)n(C)c(=O)c2c1 | 216 to 220
98 | COc1ccccc1OCCOS(N)(=O)=O | 81.5 to 83

Source: a melting point compilation (Tetko et al.; mined from patent text by program, amines drawn as free bases though some values may be those of a salt)
